The subject of one series is wild type T. brucei. Put plainly: 96-well manual assay on wild type T. brucei. It is filed as cell-based. The following applies: Trypanosoma brucei, read-out: T. brucei EC50 (SD). How it is done: In order to determine if analogues 35, 38, 44 and 46 are substrates for the P2 transporter they were assayed against a line of T. brucei lacking the gene which codes for the P2 transporter (Table 2).[33] If the analogues are transported they would be expected to show greater potency against wild type T. brucei than against the P2 knock out line. Compounds 8 and 19,[25] which contain the triazole and indolyl quinol pharmacophore respectively, but lack a P2 motif, served as negative controls.
(§1) The 96-well HTS assays against blood stream form T. brucei[38] and MRC5 cells were carried out as reported previously.[39] The manual assays performed on the AT1 double knock out T. brucei and wild type T. brucei were conducted as described by Jones et al.[39]

A further series concerns T. brucei AT1 KO. Put plainly: 96-well manual assay on AT1 double knock out T. brucei (P2 transporter knock out). It is filed as cell-based, Trypanosoma brucei. The following applies: for EC50: Trypanosoma brucei, read-out: T. brucei AT1 KO EC50 (SD); for Cell line selectivity: EC50 (AT1 KO)/EC50 (WT): manual assay. How it is done:
In order to determine if analogues 35, 38, 44 and 46 are substrates for the P2 transporter they were assayed against a line of T. brucei lacking the gene which codes for the P2 transporter (Table 2).[33] […] Compounds 8 and 19,[25] which contain the triazole and indolyl quinol pharmacophore respectively, but lack a P2 motif, served as negative controls.
as §1

The subject of series [1] is MRC5 cells. Put plainly: cells. The following applies: Homo sapiens, MRC5, read-out: EC50 MRC5 (SD, n). It is filed as cell-based, human. On the procedure: as §1
The subject of series [2] is blood stream form T. brucei. Put plainly: 96-well HTS assay against blood stream form T. brucei. It counts as cell-based, Trypanosoma brucei. The following applies: for EC50: Trypanosoma brucei. On the procedure:
as §1

The test system of series [3] is blood stream form T. brucei. The arrangement: method as in PMID 21212280. The following applies: cited from earlier work; for EC50: Table 1, data taken from Konig et al.
Series [4] relates to MRC5 cells. Also noted: method as in PMID 21212280. The following applies: Table 1; data taken from Konig et al.; cited from earlier work.
A further series can be described thus: in vitro. It counts as cell-based, human. The following applies: human. How it is done: as §1
Setting [5] is: Table 2, 96-well manual assay, wild type, weighted mean of three independent experiments.
Setting [6] is: Table 1, arithmetic mean of independent determinations, read-out: EC50 T. brucei (SD, n).
Setting [7] is: Table 2, 96-well HTS assay, blood stream form T. b. brucei, read-out: T. brucei EC50 (SD, n).

Read-outs that look alike come from different tables or passages of the source.

Take `N=C(N)c1ccc(/N=N/Nc2ccc(C(=N)N)cc2)cc1` [Berenil, reference compound]: in the series on wild type T. brucei (setting [5]), the concentration for a half-maximal effect (EC50) (commonly the midpoint of the concentration-response curve) is 31 nM. For the same compound, in the series with T. brucei AT1 KO, the EC50 is 330 nM and the “Cell line selectivity: EC50 (AT1 KO)/EC50 (WT)” value (from here on “Cell line selectivity: EC50”) is given as 11.

Take `C#CC1(O)C=CC(=O)C=C1` [Compound 1, 4-Ethynyl-4-hydroxycyclohexa-2,5-dienone]: the EC50 in the series on MRC5 cells [1] was 2100 nM; in series [2] (setting [6]), 2000 nM.

As to `O=C1C=CC(O)(C#Cc2ccc(CC(=O)Nc3ccccc3)cc2)C=C1` [Compound 3, 2-(4-((1-Hydroxy-4-oxocyclohexa-2,5-dien-1-yl)ethynyl)phenyl)-N-phenylacetamide], the EC50 with MRC5 cells [1] was 670 nM; in series [2] (setting [6]), 2200 nM.

On to `O=C1C=CC(O)(c2nc3ccccc3s2)C(Cl)=C1` (centres unmarked) [Compound 6], for which the results for the EC50 (in the series with MRC5 cells [1]; in series [2] (setting [6])) were 55 nM and 46 nM, respectively. Moreover, in series [2], the “activity against T. brucei in words” value is recorded as “low nanomolar range”.

With `Oc1ccc(-c2nc3ccccc3s2)cc1` [Compound 7], the EC50 (in series [3]; with MRC5 cells [4]) was greater than 50000 nM in each case. Further, the “activity against T. brucei in words” value in series [3] is “inactive”.

Take `COc1ccc(-n2cc(C3(O)C=CC(=O)C=C3)nn2)cc1` [Compound 8]: in the series with wild type T. brucei, the EC50 came to 95 nM. Further, in the series on T. brucei AT1 KO, the EC50 is 74 nM and the “Cell line selectivity: EC50” value is 0.78.

For the compound `COc1ccc(Cn2cc(C3(O)C=CC(=O)C=C3)nn2)cc1` [Compound 9], the results for the EC50 (in the series on MRC5 cells [1]; in series [2] (setting [6])) were 450 nM and 160 nM, respectively.

For the compound `O=C1C=CC(O)(c2cn(-c3ccc4ncsc4c3)nn2)C=C1` [Compound 10], the EC50 in the series with MRC5 cells [1] was found to be 69 nM; in series [2] (setting [6]), 27 nM. Besides, in series [2], the “activity against T. brucei in words” value is “low nanomolar range”.

For `CC(=O)OC[C@H]1O[C@@H](n2cc(C3(O)C=CC(=O)C=C3)nn2)[C@H](OC(C)=O)[C@@H](OC(C)=O)[C@H]1OC(C)=O` [Compound 11], the values for the EC50 (with MRC5 cells [1]; in series [2] (setting [6])) were greater than 50000 nM and 10000 nM, respectively.

On to `O=C1C=CC(O)(c2cn(CCC(=O)Nc3ccccc3)nn2)C=C1` [Compound 12, 3-(4-(1-Hydroxy-4-oxocyclohexa-2,5-dien-1-yl)-1H-1,2,3-triazol-1-yl)-N-phenylpropanamide], for which the results for the EC50 (in the series on MRC5 cells [1]; in series [2] (setting [6])) were 18000 nM and 2700 nM, respectively.

Regarding `O=C1C=CC(O)(c2cc3ccc(F)cc3n2S(=O)(=O)c2ccccc2)C=C1` [Compound 13], in series [3], the EC50 was 100 nM.

`O=C1C=CC(O)(c2cc3cnccc3n2S(=O)(=O)c2ccccc2)C=C1` [Compound 15]: the EC50 was 41 nM in the series on MRC5 cells [1] and 22 nM in series [2] (setting [6]). In series [2], the “activity against T. brucei in words” value is given as “low nanomolar range”.

Turning to `Cc1ccc(S(=O)(=O)n2c(C3(O)C=CC(=O)C=C3)cc3ccncc32)cc1` [Compound 16], the EC50 with MRC5 cells [1] worked out at 44 nM; in series [2] (setting [6]), 26 nM. Moreover, in series [2], the “activity against T. brucei in words” value was “low nanomolar range”.

`CCOC(=O)Nc1ccc(S(=O)(=O)n2c(C3(O)C=CC(=O)C=C3)cc3ccccc32)cc1` [Compound 17]: the EC50 amounted to 86 nM with MRC5 cells [1] and 50 nM in series [2] (setting [6]).

For `CC(=O)NCCc1ccc(S(=O)(=O)n2c(C3(O)C=CC(=O)C=C3)cc3ccccc32)cc1` [Compound 18], the EC50 was 36 nM in the series on MRC5 cells [1] and 12 nM in series [2] (setting [6]). Moreover, the “activity against T. brucei in words” value in series [2] is reported as “low nanomolar range”.

As for `COC(=O)CCc1ccc(S(=O)(=O)n2c(C3(O)C=CC(=O)C=C3)cc3ccccc32)cc1` [Compound 19, Methyl 3-(4-((2-(1-hydroxy-4-oxocyclohexa-2,5-dien-1-yl)-1H-indol-1-yl)sulfonyl)phenyl) propanoate], the EC50 in the series with MRC5 cells [1] was determined as 280 nM; in the series “in vitro” it was 280 nM; in series [2] (setting [6]) it was 160 nM; in series [2] (setting [7]), 160 nM; in the series with wild type T. brucei (setting [5]) it was 60 nM; in the series with T. brucei AT1 KO it was 80 nM. Besides, the “Cell line selectivity: EC50” value in the series on T. brucei AT1 KO came out at 1.3.

In the case of `O=C1C=CC(O)(c2cc3ccccc3n2S(=O)(=O)c2ccc(CCCO)cc2)C=C1` [Compound 20], the EC50 in the series with MRC5 cells [1] turned out to be 51 nM; in series [2] (setting [6]), 24 nM.

On to `O=C1C=CC(O)(c2cc3ccccc3n2S(=O)(=O)c2ccc(CCC(=O)N3CCOCC3)cc2)C=C1` [Compound 21], for which the values for the EC50 (with MRC5 cells [1]; in series [2] (setting [6])) were 67 nM and 36 nM, respectively.

For `CN1CCN(C(=O)CCc2ccc(S(=O)(=O)n3c(C4(O)C=CC(=O)C=C4)cc4ccccc43)cc2)CC1` [Compound 22], the EC50 is 52 nM with MRC5 cells [1] and 18 nM in series [2] (setting [6]).

In the case of `O=C1C=CC(O)(c2cc3ccccc3n2S(=O)(=O)c2ccc(CCCN3CCOCC3)cc2)C=C1` [Compound 23], the EC50 with MRC5 cells [1] amounted to 79 nM; in series [2] (setting [6]), 26 nM.

With `CN1CCN(CCCc2ccc(S(=O)(=O)n3c(C4(O)C=CC(=O)C=C4)cc4ccccc43)cc2)CC1` [Compound 24], the EC50 worked out at 50 nM in the series with MRC5 cells [1] and 16 nM in series [2] (setting [6]).

As to `CS(=O)(=O)c1ccc(S(=O)(=O)n2c(C3(O)C=CC(=O)C=C3)cc3ccccc32)cc1` [Compound 25], the EC50 in the series on MRC5 cells [1] is 39 nM; in series [2] (setting [6]), 24 nM.

In the case of `N=C(N)c1ccc(-n2cc(C3(O)C=CC(=O)C=C3)nn2)cc1` [Compound 35, 4-(4-(1-Hydroxy-4-oxocyclohexa-2,5-dienyl)-1H-1,2,3-triazol-1-yl)benzimidamide], the EC50 in the series “in vitro” was greater than 50000 nM; in series [2] (setting [7]) it was 11000 nM; with wild type T. brucei (setting [5]), 5000 nM; with T. brucei AT1 KO, 6000 nM. Further, in the series on T. brucei AT1 KO, the “Cell line selectivity: EC50” value was 1.2.

Consider `Nc1nc(N)nc(-n2cc(C3(O)C=CC(=O)C=C3)nn2)n1` [Compound 38, 4-(1-(4,6-Diamino-1,3,5-triazin-2-yl)-1H-1,2,3-triazol-4-yl)-4-hydroxycyclohexa-2,5-dienone], for which the concentration giving a half-maximal response (EC50) in the series “in vitro” is greater than 50000 nM; in series [2] (setting [7]) it was 6200 nM; with wild type T. brucei (setting [5]), 3800 nM; in the series with T. brucei AT1 KO, 3800 nM. In addition, the “Cell line selectivity: EC50” value in the series on T. brucei AT1 KO is 1.0.

On to `O=C1C=CC(O)(c2cc3ccccc3n2S(=O)(=O)c2ccc(CCC(=O)O)cc2)C=C1` [Compound 42, 3-(4-((2-(1-Hydroxy-4-oxocyclohexa-2,5-dien-1-yl)-1H-indol-1-yl)sulfonyl)phenyl)propanoic acid], for which the EC50 is 3300 nM in “in vitro” and 740 nM in series [2] (setting [7]).

Regarding `Nc1nc(N)nc(NCCCOC(=O)CCc2ccc(S(=O)(=O)n3c(C4(O)C=CC(=O)C=C4)cc4ccccc43)cc2)n1` [Compound 44, 3-((4,6-Diamino-1,3,5-triazin-2-yl)amino)propyl 3-(4-((2-(1-hydroxy-4-oxocyclohexa-2,5-dien-1-yl)-1H-indol-1-yl)sulfonyl)phenyl)propanoate], the EC50 in the series “in vitro” stood at 950 nM; in series [2] (setting [7]), 350 nM; in the series on wild type T. brucei (setting [5]), 250 nM; in the series on T. brucei AT1 KO, 260 nM. In addition, the “Cell line selectivity: EC50” value in the series with T. brucei AT1 KO is reported as 1.0.

As for `Nc1nc(N)nc(NCCCNC(=O)CCc2ccc(S(=O)(=O)n3c(C4(O)C=CC(=O)C=C4)cc4ccccc43)cc2)n1` [Compound 46, N-(3-((4,6-Diamino-1,3,5-triazin-2-yl)amino)propyl)-3-(4-((2-(1-hydroxy-4-oxocyclohexa-2,5-dien-1-yl)-1H-indol-1-yl)sulfonyl)phenyl)propanamide], the EC50 was 18000 nM in the series “in vitro”, 3200 nM in series [2] (setting [7]), 1700 nM in the series on wild type T. brucei (setting [5]) and 1800 nM in the series with T. brucei AT1 KO. Moreover, the “Cell line selectivity: EC50” value with T. brucei AT1 KO is 1.1.

Turning to `Nc1nc(N)nc(Nc2ccc([As]3SCC(CO)S3)cc2)n1` (centres unmarked) [melarsoprol, reference compound], the EC50 in series [2] (read-out: EC50 against T. brucei) stood at 33 nM.

For the compound `N=C(N)c1ccc(OCCCCCOc2ccc(C(=N)N)cc2)cc1` [pentamidine, reference compound], the EC50 in series [2] (reference drugs assayed under identical conditions, read-out: EC50 against T. brucei) amounted to 8 nM.

Source of the values: PMC3281193, “Quinol derivatives as potential trypanocidal agents” (Bioorganic & Medicinal Chemistry, 2012).
